ChEMBL document CHEMBL5537204, “Identifying Marine-Derived Tanzawaic Acid Derivatives as Novel Inhibitors against Osteoclastogenesis and Osteoporosis via Downregulation of NF-κB and NFATc1 Activation” (J Med Chem, 2024)
Active and inactive are the calls of the source. No cut-off for these calls is given here.

Legend:
RAW264.7 [1] = test: Inhibition of LPS-induced NF-kappaB activation in mouse RAW264.7 cells expressing luciferase gene preincubated with compound for 30 mins followed by LPS-induction and measured after 6 hrs by luciferase reporter gene assay; assay type: cell-based; details: dose 20.0 µM, time 6.5 hrs
RAW264.7 [2] = test: Inhibition of LPS-induced NF-kappaB activation in mouse RAW264.7 cells expressing luciferase gene at 20 uM preincubated with compound for 30 mins followed by LPS-induction and measured after 6 hrs by luciferase reporter gene assay; assay type: cell-based; details: time 6.5 hrs
BMMC [3] = test: Anti-osteoporosis activity in C57BL/6 mouse BMMC cells assessed as reduction in RANKL-induced osteoclasts formation at 10 uM incubated for 4 days in presence of MCSF by TRAP staining based assay; assay type: functional
Mus musculus [4] = test: Anti-osteoporosis activity in OVX-induced osteoporosis C57BL/6 mouse model assessed as prevention of bone loss in femur at 5 to 10 mg/kg, IG administered every 3 days for 8 weeks by H and E staining based analysis; assay type: functional, organism-based; details: dose 5-10 mg/kg
[5] = Toxicity in C57BL/6 mouse assessed as animal death at 5 to 10 mg/kg, IG administered every 3 days for 46 days; assay type: organism-based; details: in vivo, po, 1104 h, dose 5-10 mg/kg, time 46 day
BMMC [6] = test: Anti-osteoclastogenesis activity in C57BL/6 mouse BMMC cells assessed as reduction in RANKL-induced osteoclasts formation at 5 uM incubated for 4 days in presence of MCSF by TRAP staining based assay; assay type: functional; set-up: scale not given: the % may be the effect or the level left; details: time 4 day
BMMC [7] = test: Anti-osteoclastogenesis activity in RANKL-induced C57BL/6 mouse BMMC cells assessed as inhibition of TRAP mRNA expression pretreated with compound for 4 hrs followed by RANKL-induction and measured after 24 hrs by RT-PCR analysis; assay type: functional, cell-based; details: dose 1-10 µM, time 28.0 hrs
RAW264.7 [8] = test: Downregulation of p65 expression in RANKL-induced mouse RAW264.7 cells expressing NFATc1 at 10 uM pretreated with compound for 4 hrs followed by RANKL-induction and measured after 24 hrs by Western blot analysis; assay type: functional, cell-based; details: time 28.0 hrs
BMMC [9] = test: Anti-osteoclastogenesis activity in C57BL/6 mouse BMMC cells assessed as reduction in RANKL-induced osteoclasts formation incubated for 4 days in presence of MCSF by TRAP staining based assay; assay type: functional, cell-based; details: dose 1-10 µM, time 4.0 day
BMMC [10] = test: Anti-osteoclastogenesis activity in RANKL-induced C57BL/6 mouse BMMC cells assessed as inhibition of OSCAR mRNA expression pretreated with compound for 4 hrs followed by RANKL-induction and measured after 24 hrs by RT-PCR analysis; assay type: functional, cell-based; details: dose 1-10 µM, time 28.0 hrs
Mus musculus [11] = test: Anti-osteoporosis activity in OVX-induced osteoporosis C57BL/6 mouse model assessed as prevention of bone loss in femur at 10 mg/kg, IG administered every 3 days for 8 weeks; assay type: functional, organism-based
Mus musculus [12] = test: Anti-osteoporosis activity in OVX-induced osteoporosis C57BL/6 mouse model assessed as downregulation of NFATc1 expression in bone at 5 to 10 mg/kg, IG administered every 3 days for 8 weeks by IHC analysis; assay type: functional, organism-based; details: dose 5-10 mg/kg
BMMC [13] = test: Anti-osteoclastogenesis activity in RANKL-induced C57BL/6 mouse BMMC cells assessed as inhibition of Atp6v0d2 mRNA expression pretreated with compound for 4 hrs followed by RANKL-induction and measured after 24 hrs by RT-PCR analysis; assay type: functional, cell-based; details: dose 1-10 µM, time 28.0 hrs
RAW264.7 [14] = test: Inhibition of RANKL-induced NF-kappaB activation in mouse RAW264.7 cells expressing luciferase gene preincubated with compound for 4 hrs followed by LPS-induction and measured after 6 hrs by luciferase reporter gene assay; assay type: cell-based; details: dose 1-10 µM, time 10.0 hrs
Mus musculus [15] = test: Anti-osteoporosis activity in OVX-induced osteoporosis C57BL/6 mouse model assessed as increase in connectivity density in femur at 5 to 10 mg/kg, IG administered every 3 days for 8 weeks; assay type: functional, organism-based; details: dose 5-10 mg/kg
BMMC [16] = test: Cytotoxicity against mouse BMMC cells assessed as reduction in cell viability at 10 uM incubated for 4 days by MTT assay; assay type: toxicity, cell-based; details: 96 h, time 4 day
RAW264.7 [17] = test: Inhibition of RANKL-induced NF-kappaB activation in mouse RAW264.7 cells expressing luciferase gene assessed as suppression of IkappaBalpha degradation at 1 to 10 uM preincubated with compound for 4 hrs followed by LPS-induction and measured after 6 hrs by Western blot analysis; assay type: cell-based; details: dose 1-10 µM, time 10.0 hrs
Mus musculus [18] = test: Anti-osteoporosis activity in OVX-induced osteoporosis C57BL/6 mouse model assessed as increase in BV/TV in femur at 5 to 10 mg/kg, IG administered every 3 days for 8 weeks; assay type: functional, organism-based; details: dose 5-10 mg/kg
RAW264.7 [19] = test: Inhibition of RANKL-induced NF-kappaB activation in mouse RAW264.7 cells expressing luciferase gene assessed as reduction in p65 protein level in nucleus preincubated with compound for 4 hrs followed by LPS-induction and measured after 6 hrs by Western blot analysis; assay type: cell-based; details: dose 1-10 µM, time 10.0 hrs
[20] = biological target: Transcription factor p65 (Mus musculus) (UniProt Q04207); test: Binding affinity to NF-kappaB p65 in mouse RAW264.7 cells assessed as thermal stabilization at 10 uM at 37 to 57 degreeC incubated for 4 hrs by CETSA assay; assay type: cell-based
Chain of Transcription factor p65 (Mus musculus) (Q04207 whole entry): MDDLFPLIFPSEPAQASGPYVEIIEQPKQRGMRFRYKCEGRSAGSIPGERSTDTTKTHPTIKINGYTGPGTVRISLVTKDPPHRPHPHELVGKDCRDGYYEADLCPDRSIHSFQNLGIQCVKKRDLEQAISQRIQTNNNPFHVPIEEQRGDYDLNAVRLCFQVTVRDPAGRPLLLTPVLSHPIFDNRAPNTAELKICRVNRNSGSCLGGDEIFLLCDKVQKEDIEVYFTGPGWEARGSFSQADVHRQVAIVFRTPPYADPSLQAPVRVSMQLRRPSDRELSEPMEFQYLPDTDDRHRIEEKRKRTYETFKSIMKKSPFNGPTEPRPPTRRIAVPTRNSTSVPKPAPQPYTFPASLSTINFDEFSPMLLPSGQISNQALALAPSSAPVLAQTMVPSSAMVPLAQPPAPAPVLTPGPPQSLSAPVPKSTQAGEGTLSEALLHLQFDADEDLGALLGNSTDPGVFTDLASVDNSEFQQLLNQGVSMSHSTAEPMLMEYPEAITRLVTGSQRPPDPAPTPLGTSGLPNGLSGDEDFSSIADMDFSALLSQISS

Mus musculus [21] = test: Anti-osteoporosis activity in OVX-induced osteoporosis C57BL/6 mouse model assessed as prevention of bone loss in femur at 5 to 10 mg/kg, IG administered every 3 days for 8 weeks; assay type: functional, organism-based; details: dose 5-10 mg/kg
BMMC [22] = test: Anti-osteoclastogenesis activity in RANKL-induced C57BL/6 mouse BMMC cells assessed as suppression of NFATc1 expression level in nucleus at 1 to 10 uM pretreated with compound for 4 hrs followed by RANKL-induction and measured after 24 hrs by Western blot analysis; assay type: functional, cell-based; details: dose 1-10 µM, time 28.0 hrs
[23] = Toxicity in C57BL/6 mouse assessed as abnormal behavior at 5 to 10 mg/kg, IG administered every 3 days for 46 days; assay type: organism-based; details: in vivo, po, 1104 h, dose 5-10 mg/kg, time 46 day
Mus musculus [24] = test: Anti-osteoporosis activity in OVX-induced osteoporosis C57BL/6 mouse model assessed as downregulation of p65 expression in bone at 5 to 10 mg/kg, IG administered every 3 days for 8 weeks by IHC analysis; assay type: functional, organism-based; details: dose 5-10 mg/kg
Transcription factor p65 = Transcription factor p65 (Mus musculus, UniProt Q04207); test: Binding affinity to NF-kappaB p65 in mouse RAW264.7 cells assessed as dissociation constant by SPR analysis
Chain of Transcription factor p65 (Q04207 whole entry): as above

[25] = Toxicity in C57BL/6 mouse assessed as animal death at 60 mg/kg, IG administered every 3 days for 46 days; assay type: organism-based; details: in vivo, po, 1104 h, time 46 day
Mus musculus [26] = test: Anti-osteoporosis activity in OVX-induced osteoporosis C57BL/6 mouse model assessed as increase in connectivity density in femur at 60 mg/kg, IG administered every 3 days for 8 weeks; assay type: functional, organism-based
[27] = Toxicity in C57BL/6 mouse assessed as abnormal behavior at 60 mg/kg, IG administered every 3 days for 46 days; assay type: organism-based; details: in vivo, po, 1104 h, time 46 day
Mus musculus [28] = test: Anti-osteoporosis activity in OVX-induced osteoporosis C57BL/6 mouse model assessed as increase in BV/TV in femur at 60 mg/kg, IG administered every 3 days for 8 weeks; assay type: functional, organism-based
Mus musculus [29] = test: Anti-osteoporosis activity in OVX-induced osteoporosis C57BL/6 mouse model assessed as prevention of bone loss in femur at 60 mg/kg, IG administered every 3 days for 8 weeks; assay type: functional, organism-based

CC1=C(/C=C/C=C/C(=O)O)[C@H]2[C@H](C=C1)C[C@H](C)C[C@@H]2C
inhibition (RAW264.7 [1]): Dose-Dependent Effect

CC(=O)OC[C@H]1C[C@@H](C)[C@H]2[C@@H](C=C[C@H](C)[C@]2(O)/C=C/C=C/C(=O)O)C1
inhibition (RAW264.7 [1]): Dose-Dependent Effect

C[C@@H]1Cc2ccc(CO)c(/C=C/C=C/C(=O)O)c2[C@H](C)C1
inhibition (RAW264.7 [2]): Active

C[C@H]1C[C@H]2[C@@H](O)[C@H](Cl)[C@@H](C)[C@@](O)(/C=C/C=C/C(=O)O)[C@@H]2[C@@H](C)C1
inhibition (RAW264.7 [1]): Dose-Dependent Effect | Activity (BMMC [3]; time 4.0 day): Active

CO[C@H]1C=C(C)[C@H](/C=C/C=C/C(=O)O)[C@@H]2[C@@H]1C[C@@H](CO)C[C@H]2C
inhibition (RAW264.7 [1]): Dose-Dependent Effect

C[C@@H]1[C@@H](Cl)[C@H](O)[C@@H]2C[C@@](C)(O)C[C@H](C)[C@H]2[C@]1(O)/C=C/C=C/C(=O)O
inhibition (RAW264.7 [1]): Dose-Dependent Effect

C[C@@H]1C[C@](O)(CO)C[C@@H]2C=C[C@H](C)[C@H](/C=C/C=C/C(=O)O)[C@@H]12
inhibition (RAW264.7 [1]): Dose-Dependent Effect

C[C@@H]1C[C@@H]2[C@@H](C(=O)O)[C@H](C)[C@](O)(/C=C/C=C/C(=O)O)[C@H]2[C@H](C)C1
inhibition (RAW264.7 [1]): Dose-Dependent Effect

C[C@@H]1C[C@@](C)(O)C[C@@H]2C=C[C@H](C)[C@H](/C=C/C=C/C(=O)O)[C@@H]12
inhibition (RAW264.7 [1]): Dose-Dependent Effect

CC(=O)OCc1ccc2c(c1/C=C/C=C/C(=O)O)[C@H](C)C[C@H](C)C2
inhibition (RAW264.7 [2]): Active

Cc1ccc2c(c1/C=C/C=C/C(=O)O)[C@H](C)C[C@H](C)[C@H]2O
inhibition (RAW264.7 [2]): Active

Cc1ccc2c(c1/C=C/C=C/C(=O)O)[C@H](C)C[C@@](C)(O)C2
inhibition (RAW264.7 [1]): Dose-Dependent Effect | inhibition (RAW264.7 [2]): Active

CC(=O)OC[C@@H](C)C[C@@H](C)c1cccc(C)c1/C=C/C=C/C(=O)O
inhibition (RAW264.7 [1]): Dose-Dependent Effect | Activity (BMMC [3]; time 4.0 day): Active

Cc1cccc([C@H](C)C[C@H](C)CO)c1/C=C/C=C/C(=O)O
Activity (Mus musculus [4]): Active | Activity [5]: Non-Toxic | Activity (BMMC [6]): 49.2% | Activity (BMMC [7]): Dose-Dependent Effect | Activity (RAW264.7 [8]): Active | Activity (BMMC [9]): Dose-Dependent Effect | Activity (BMMC [10]): Dose-Dependent Effect | Activity (Mus musculus [11]): Active | Activity (Mus musculus [12]): Active | Activity (BMMC [13]): Dose-Dependent Effect | inhibition (RAW264.7 [1]): Dose-Dependent Effect | inhibition (RAW264.7 [14]): Dose-Dependent Effect | Activity (Mus musculus [15]): Active | Activity (BMMC [16]): Non-Toxic | inhibition (RAW264.7 [17]): Active | Activity (Mus musculus [18]): Active | inhibition (RAW264.7 [19]): Dose-Dependent Effect | Activity [20]: Active | Activity (Mus musculus [21]): Active | Activity (BMMC [22]): Active | Activity [23]: Non-Toxic | Activity (Mus musculus [24]): Active | Activity (BMMC [3]; time 4 day): 69.7% | Kd (Transcription factor p65): 44.7 µM

CC1=C(/C=C/C=C/C(=O)O)[C@@H]2[C@H](C[C@](C)(O)C[C@H]2C)[C@@H](O)[C@H]1O
inhibition (RAW264.7 [1]): Dose-Dependent Effect

C[C@@H]1C[C@@](C)(O)C[C@@H]2C=C[C@H](C)[C@H](/C=C/C(=O)O)[C@@H]12
inhibition (RAW264.7 [1]): Dose-Dependent Effect

C[C@]12CC[C@@H]3c4ccc(O)cc4CC[C@H]3[C@@H]1CC[C@@H]2O [ESTRADIOL]
Activity [25]: Non-Toxic | Activity (Mus musculus [26]): Active | Activity [27]: Non-Toxic | Activity (Mus musculus [28]): Active | Activity (Mus musculus [29]): Active

Cc1ccc2c(c1/C=C/C=C/C(=O)O)[C@H](C)C[C@H](C)C2
inhibition (RAW264.7 [2]): Active

C[C@@H]1[C@@H](O)[C@H](O)[C@@H]2C[C@H](CO)C[C@H](C)[C@H]2[C@]1(O)/C=C/C=C/C(=O)O
inhibition (RAW264.7 [1]): Dose-Dependent Effect

CC(=O)OC[C@@H]1Cc2ccc(C)c(/C=C/C=C/C(=O)O)c2[C@H](C)C1
inhibition (RAW264.7 [2]): Active

Cc1ccc2c(c1/C=C/C=C/C(=O)O)[C@H](C)C[C@H](CO)C2
inhibition (RAW264.7 [2]): Active

Cc1ccc2c(c1/C=C/C=C/C(=O)O)[C@H](C)C[C@@](C)(O)[C@H]2O
inhibition (RAW264.7 [1]): Dose-Dependent Effect | Activity (BMMC [3]; time 4.0 day): Active | inhibition (RAW264.7 [2]): Active

C[C@@H]1C[C@@](C)(O)C[C@@H]2C=C[C@H](C)[C@](O)(/C=C/C=C/C(=O)O)[C@@H]12
inhibition (RAW264.7 [1]): Dose-Dependent Effect | Activity (BMMC [3]; time 4.0 day): Active

CC1=CC(=O)[C@H]2C[C@@H](C)C[C@@H](C)[C@@H]2[C@]1(O)/C=C/C=C/C(=O)O
inhibition (RAW264.7 [1]): Dose-Dependent Effect

CC(=O)C[C@@H](C)c1cccc(C)c1/C=C/C=C/C(=O)O
inhibition (RAW264.7 [1]): Dose-Dependent Effect

C[C@@H]1[C@@H](Cl)[C@H](O)[C@@H]2C[C@H](CO)C[C@H](C)[C@H]2[C@@H]1/C=C/C=C/C(=O)O
inhibition (RAW264.7 [1]): Dose-Dependent Effect | Activity (BMMC [3]; time 4.0 day): Active

C[C@@H]1C[C@@](C)(O)C[C@@H]2C=C[C@@](C)(/C=C/C=C/C(=O)O)C(=O)[C@@H]12
inhibition (RAW264.7 [1]): Dose-Dependent Effect

Cc1ccc2c(c1/C=C/C=C/C(=O)O)[C@H](C)C[C@H](C)[C@@H]2O
inhibition (RAW264.7 [2]): Active
